Assay results: US20130040912A1, “PIPERAZINOTRIAZINES AS PI3K INHIBITORS FOR USE IN THE TREATMENT ANTIPROLIFERATIVE DISORDERS” (UNIVERSITY OF BASEL, priority 2010, published 2013)
Where two headings read alike, the source gives them in different places.

What was measured:
melanoma cell line A2058 = assay: in cell Western inhibition assay on melanoma cell line A2058; type: cell-based; conditions: Homo sapiens, the smaller the value, the stronger the inhibition
Experimental: (§1) The inhibitor efficacy and the cell permeability of the compounds of the invention are measured by in cell Western inhibition assay on melanoma cell line A2058 and TSC2−/− MEFs cell line. Furthermore, in vitro PI3Kalpha inhibition is measured (Table 1).

PI3Kalpha = PI3Kalpha (Homo sapiens, UniProt P42336); assay: in vitro PI3Kalpha inhibition, Kinase Glo assay; type: biochemical; conditions: for remaining activity at 0.2 µM: Kinase Glo assay at 200 nM, % remaining activity, the smaller the value, the stronger the inhibition, read-out: In vitro PI3Kα, % remaining activity; for inhibitor activity against PI3K (in words): compared with ZSTK474 (4)
Experimental: as §1

TSC2-/- MEFs cell line = assay: in cell Western inhibition assay on TSC2-/- MEFs cell line; type: cell-based; conditions: for activity at 1 µM: in cell Western, the smaller the value, the stronger the inhibition, read-out: TSC2-/- MEFs cell inhibition pS6, % remaining activity; for selectivity to mTOR (in words): compared with ZSTK474 (4)
Experimental: as §1

PI3Kgamma isoform = PI3Kgamma isoform (Homo sapiens, UniProt P48736); assay: fluorescence correlation spectroscopy binding to PI3Kgamma; conditions: binding leads to an increase in diffusion time
Experimental: Fluorophore containing compound 13 can be used as a reference inhibitor by fluorescence correlation spectroscopy experiments in which the binding constants of novel inhibitors are determined. […] When the enzyme is saturated with compound 13, new possible ligands can be tested by observing the release of compound 13. This leads to a decrease in diffusion time.

[1] = read-out: A2058 cell inhibition pPKB/PKB, % remaining activity
[2] = read-out: A2058 cell inhibition pS6, % remaining activity

Sequence of PI3Kalpha (P42336 whole entry, species assumed): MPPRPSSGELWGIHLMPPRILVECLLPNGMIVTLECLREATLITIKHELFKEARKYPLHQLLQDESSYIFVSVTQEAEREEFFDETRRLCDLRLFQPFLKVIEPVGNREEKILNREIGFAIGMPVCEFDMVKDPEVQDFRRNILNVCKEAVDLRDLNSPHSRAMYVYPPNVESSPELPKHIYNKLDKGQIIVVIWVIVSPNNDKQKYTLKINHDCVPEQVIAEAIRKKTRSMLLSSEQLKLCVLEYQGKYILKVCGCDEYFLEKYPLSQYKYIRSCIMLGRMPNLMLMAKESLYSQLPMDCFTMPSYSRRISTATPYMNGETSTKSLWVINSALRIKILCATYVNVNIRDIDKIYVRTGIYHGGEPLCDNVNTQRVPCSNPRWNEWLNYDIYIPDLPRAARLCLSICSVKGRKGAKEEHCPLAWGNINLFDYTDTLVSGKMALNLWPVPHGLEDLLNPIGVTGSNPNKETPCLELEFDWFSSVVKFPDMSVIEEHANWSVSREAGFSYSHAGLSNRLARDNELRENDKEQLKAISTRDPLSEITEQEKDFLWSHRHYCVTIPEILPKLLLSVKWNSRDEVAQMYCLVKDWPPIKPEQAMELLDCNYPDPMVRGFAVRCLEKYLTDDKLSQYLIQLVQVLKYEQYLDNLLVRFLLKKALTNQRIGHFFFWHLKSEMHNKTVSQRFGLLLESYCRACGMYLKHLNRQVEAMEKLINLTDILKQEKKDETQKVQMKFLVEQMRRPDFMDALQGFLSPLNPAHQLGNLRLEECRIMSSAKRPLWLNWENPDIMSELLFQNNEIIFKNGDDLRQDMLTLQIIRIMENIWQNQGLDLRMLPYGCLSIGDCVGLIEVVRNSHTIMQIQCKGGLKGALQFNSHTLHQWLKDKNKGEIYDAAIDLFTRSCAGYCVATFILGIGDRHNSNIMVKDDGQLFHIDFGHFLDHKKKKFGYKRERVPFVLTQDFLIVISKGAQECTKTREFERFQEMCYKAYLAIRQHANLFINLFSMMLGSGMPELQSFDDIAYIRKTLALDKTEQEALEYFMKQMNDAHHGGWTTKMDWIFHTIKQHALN
Sequence of PI3Kalpha (P27986 whole entry partner, species assumed): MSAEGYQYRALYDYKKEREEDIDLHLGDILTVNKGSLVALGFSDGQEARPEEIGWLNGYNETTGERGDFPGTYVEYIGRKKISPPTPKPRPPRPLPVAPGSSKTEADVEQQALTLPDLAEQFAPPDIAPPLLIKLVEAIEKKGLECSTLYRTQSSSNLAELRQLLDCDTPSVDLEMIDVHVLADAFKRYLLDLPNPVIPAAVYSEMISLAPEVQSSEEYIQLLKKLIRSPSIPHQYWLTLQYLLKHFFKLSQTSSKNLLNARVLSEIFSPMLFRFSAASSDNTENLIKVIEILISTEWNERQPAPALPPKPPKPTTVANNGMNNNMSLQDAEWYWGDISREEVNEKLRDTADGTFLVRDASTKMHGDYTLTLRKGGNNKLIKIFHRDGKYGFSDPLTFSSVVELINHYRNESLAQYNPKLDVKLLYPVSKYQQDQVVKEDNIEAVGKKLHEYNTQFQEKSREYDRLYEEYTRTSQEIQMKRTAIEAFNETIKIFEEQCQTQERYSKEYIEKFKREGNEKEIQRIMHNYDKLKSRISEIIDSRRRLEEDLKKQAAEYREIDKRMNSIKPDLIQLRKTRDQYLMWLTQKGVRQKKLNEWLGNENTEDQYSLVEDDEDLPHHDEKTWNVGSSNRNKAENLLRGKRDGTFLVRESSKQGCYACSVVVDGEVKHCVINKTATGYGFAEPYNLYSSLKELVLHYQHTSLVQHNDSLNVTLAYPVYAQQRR
Sequence of PI3Kgamma isoform (P48736 whole entry, the tested form may be a part, canonical isoform): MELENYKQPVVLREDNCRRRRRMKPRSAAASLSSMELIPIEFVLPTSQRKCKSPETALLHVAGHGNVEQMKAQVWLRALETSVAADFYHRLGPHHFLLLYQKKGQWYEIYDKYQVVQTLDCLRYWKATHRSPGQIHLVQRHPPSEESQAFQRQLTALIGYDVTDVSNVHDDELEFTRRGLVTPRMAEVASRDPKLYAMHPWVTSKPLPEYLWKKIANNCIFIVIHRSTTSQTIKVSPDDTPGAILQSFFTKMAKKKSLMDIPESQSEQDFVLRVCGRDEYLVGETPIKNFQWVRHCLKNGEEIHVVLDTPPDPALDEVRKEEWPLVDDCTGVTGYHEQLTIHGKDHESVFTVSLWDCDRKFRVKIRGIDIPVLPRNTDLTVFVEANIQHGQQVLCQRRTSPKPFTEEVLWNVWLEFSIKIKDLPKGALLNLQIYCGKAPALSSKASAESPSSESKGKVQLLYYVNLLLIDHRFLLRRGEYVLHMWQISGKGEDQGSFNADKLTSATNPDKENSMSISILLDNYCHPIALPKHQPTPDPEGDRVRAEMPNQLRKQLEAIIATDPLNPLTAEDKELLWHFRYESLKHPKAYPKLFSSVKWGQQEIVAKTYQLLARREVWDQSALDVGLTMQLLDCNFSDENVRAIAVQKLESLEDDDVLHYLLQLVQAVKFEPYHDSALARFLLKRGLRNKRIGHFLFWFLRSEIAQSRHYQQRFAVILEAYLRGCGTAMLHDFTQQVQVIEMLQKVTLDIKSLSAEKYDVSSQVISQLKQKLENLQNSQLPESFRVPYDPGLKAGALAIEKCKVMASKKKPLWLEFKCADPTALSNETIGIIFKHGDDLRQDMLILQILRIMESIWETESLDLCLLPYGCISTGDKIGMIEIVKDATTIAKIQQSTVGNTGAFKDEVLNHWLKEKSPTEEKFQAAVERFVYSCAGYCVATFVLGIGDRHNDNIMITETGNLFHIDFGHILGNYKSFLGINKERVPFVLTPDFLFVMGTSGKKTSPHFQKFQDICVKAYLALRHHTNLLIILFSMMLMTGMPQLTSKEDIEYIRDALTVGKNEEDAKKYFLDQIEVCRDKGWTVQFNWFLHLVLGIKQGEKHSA

| Compound | remaining activity at 0.2 µM (PI3Kalpha) [%] | binding to PI3Kgamma isoform (in words) (PI3Kgamma isoform) | activity at 1 µM (melanoma cell line A2058; [1]) [%] | activity at 1 µM (melanoma cell line A2058; [2]) [%] | activity at 1 µM (TSC2-/- MEFs cell line) [%] | inhibitor activity against PI3K (in words) (PI3Kalpha) | selectivity to mTOR (in words) (TSC2-/- MEFs cell line) | activity (in words) (PI3Kalpha) |
| --- | --- | --- | --- | --- | --- | --- | --- | --- |
| FC(F)c1nc2ccccc2n1-c1nc(N2CCOCC2)nc(N2CCOCC2)n1 [Compound 4, 4,4′-(6-(2-(Difluoromethyl)-1H-benzo[d]imidazol-1-yl)-1,3,5-triazine-2,4-diyl)dimorpholine, reference compound] | 13 | – | 3.63 ± 1.1 | 22.5 ± 0.13 | 37.9 ± 4.21 | – | – | – |
| C=CC(=O)N1CCN(c2nc(N3CCOCC3)nc(-n3c(C(F)F)nc4ccccc43)n2)CC1 [Compound 8, 1-(4-(4-(2-(Difluoromethyl)-1H-benzo[d]imidazol-1-yl)-6-morpholino-1,3,5-triazin-2-yl)piperazin-1-yl)prop-2-en-1-one] | 8 | – | 13 ± 0.01 | 23 ± 4.22 | 95 ± 7.44 | – | – | – |
| O=C(CCCCCNC(=O)COc1ccc(/C=C/C2=[N+]3C(=Cc4ccc(-c5cccs5)n4[B-]3(F)F)C=C2)cc1)NCCN1CCN(c2nc(N3CCOCC3)nc(-n3c(C(F)F)nc4ccccc43)n2)CC1 [Compound 13, (E)-3-(4-(2-((6-((2-(4-(4-(2-(Difluoromethyl)-1H-benzo[d]imidazol-1-yl)-6-morpholino-1,3,5-triazin-2-yl)piperazin-1-yl)ethyl)amino)-6-oxohexyl)amino)-2-oxoethoxy)styryl)-5,5-difluoro-7-(thiophen-2-yl)-5H-dipyrrolo[1,2-c:2′,1′-f][1,3,2]diazaborinin-4-ium-5-uide] | 13 | binds to the PI3Kgamma isoform | 47.5 ± 5.48 | 57.3 ± 6.86 | 95.5 ± 9.81 | – | – | active |
| C=CC(=O)NCCN1CCN(c2nc(N3CCOCC3)nc(-n3c(C(F)F)nc4ccccc43)n2)CC1 [Compound 10, N-(2-(4-(4-(2-(Difluoromethyl)-1H-benzo[d]imidazol-1-yl)-6-morpholino-1,3,5-triazin-2-yl)piperazin-1-yl)ethyl)acrylamide] | 20 | – | 3.99 ± 1.18 | 12.7 ± 1.69 | 74.5 ± 5.9 | – | – | – |
| CN1CCN(c2nc(N3CCOCC3)nc(-n3cnc4ccccc43)n2)CC1 [Compound 17, reference compound] | 83 | – | 122 ± 2.58 | 83 ± 3.31 | 123 ± 5.78 | – | – | – |
| CCCCCCN1CCN(c2nc(N3CCOCC3)nc(-n3c(C(F)F)nc4ccccc43)n2)CC1 [Compound 11, 4-(4-(2-(Difluoromethyl)-1H-benzo[d]imidazol-1-yl)-6-(4-hexylpiperazin-1-yl)-1,3,5-triazin-2-yl)morpholine] | 45 | – | 85.2 ± 3.71 | 74 ± 10.3 | 85.7 ± 5.71 | – | – | – |

Now from value to molecule, other results behind:

| remaining activity at 0.2 µM (PI3Kalpha) [%] | binding to PI3Kgamma isoform (in words) (PI3Kgamma isoform) | Compound | activity at 1 µM (melanoma cell line A2058; [1]) [%] | activity at 1 µM (melanoma cell line A2058; [2]) [%] | activity at 1 µM (TSC2-/- MEFs cell line) [%] | inhibitor activity against PI3K (in words) (PI3Kalpha) | selectivity to mTOR (in words) (TSC2-/- MEFs cell line) | activity (in words) (PI3Kalpha) |
| --- | --- | --- | --- | --- | --- | --- | --- | --- |
| 42 | – | CCOCCN1CCN(c2nc(N3CCOCC3)nc(-n3c(C(F)F)nc4ccccc43)n2)CC1 [Compound 12, 4-(4-(2-(Difluoromethyl)-1H-benzo[d]imidazol-1-yl)-6-(4-(2-ethoxyethyl)piperazin-1-yl)-1,3,5-triazin-2-yl)morpholine] | 15.9 ± 2.46 | 24.4 ± 4.34 | 77.1 ± 4.62 | – | – | – |
| 35 | – | CCS(=O)(=O)N1CCN(c2nc(N3CCOCC3)nc(-n3c(C(F)F)nc4ccccc43)n2)CC1 [Compound 7, 4-(4-(2-(Difluoromethyl)-1H-benzo[d]imidazol-1-yl)-6-(4-(ethylsulfonyl)piperazin-1-yl)-1,3,5-triazin-2-yl)morpholine] | 30.7 ± 1.08 | 56.7 ± 10.6 | 104 ± 4.27 | slightly decreased | notable reduced | – |
| 50 | – | NCCN1CCN(c2nc(N3CCOCC3)nc(-n3c(C(F)F)nc4ccccc43)n2)CC1 [Compound 9, 2-(4-(4-(2-(Difluoromethyl)-1H-benzo[d]imidazol-1-yl)-6-morpholino-1,3,5-triazin-2-yl)piperazin-1-yl)ethanamine] | 16.5 ± 0.24 | 30.9 ± 4.06 | 89.9 ± 9.5 | – | – | – |
| 33 | – | CN1CCN(c2nc(N3CCOCC3)nc(-n3c(C(F)F)nc4ccccc43)n2)CC1 [Compound 5, 4-(4-(2-(Difluoromethyl)-1H-benzo[d]imidazol-1-yl)-6-(4-methylpiperazin-1-yl)-1,3,5-triazin-2-yl)morpholine] | 4.13 ± 0.37 | 18.5 ± 1.7 | 67.3 ± 1.26 | Increasing of inhibitor activity against PI3K | diminishing of selectivity to mTOR | substantially more active than compound 17 |
